{"source": "patent US20140057829A1", "about": "“Citrullinated Histone H3 (Cit H3) in Septic Shock” (THE GENERAL HOSPITAL CORPORATION, priority 2011, published 2014)", "key": {"histone H3 in serum [1]": {"test_system": "histone H3 in serum", "assay": "Serum histone H3 by Western blot in LPS-induced septic shock mice treated with or without SAHA", "format": "in vivo", "details": "blood 3 h after LPS", "experimental": "To assure that the data were reliable, independent serum samples were collected and analyzed. As in a previous study (Li et al., Shock. 2009; 32(5): 517-523), male C57B1/6J mice (n=9, 3/group) weighing 25-30 g (purchased from Jackson Labs (Bar Harbor, Me.)) were randomly divided into two groups: LPS control, and SAHA+LPS. Normal saline (10 μl/g body weight) or LPS (20 mg/kg) dissolved in normal saline was injected intraperitoneally. The mice were given DMSO (1 μl/g body weight) or SAHA (50 mg/kg) dissolved in DMSO intraperitoneally 2 hours (h) before, and then soon after injection of LPS. Sham mice (no LPS, no SAHA) were used as the control. Serum separated from these blood samples was saved at −80° C. and used for the current experiment. In the present study, a large dose (35 mg/kg) or a small dose (10 mg/kg) of LPS was administrated intraperitoneally. […] Survival rate was then recorded for over the next 7 days. […]\nThe samples were analyzed by Western blot with anti-histone H3 antibody. […] The primary antibody was detected by incubation with horseradish peroxidase-coupled second antibody (1:3,000 in PBST with 5% milk) at room temperature for 2 h. […] Films were developed using a standard photographic procedure and quantitative analysis of detected bands was carried out by densitometer scanning using VersaDoc Imaging System (BioRad Laboratories, Hercules, Calif.)."}, "histone H3 in serum [2]": {"test_system": "histone H3 in serum", "assay": "iTRAQ screen for serum biomarkers in LPS-induced septic shock and SAHA treatment", "format": "in vivo", "details": "LPS-induced septic shock; 5 h after first SAHA treatment, 3 h after LPS injection", "experimental": "To identify biomarkers of septic shock and treatment, isobaric tag labeling for relative and absolute quantitation (iTRAQ) was performed as described in WO 2010/126635 (which is incorporated herein by reference) in sham (no LPS and no treatment), septic shock (3 h after LPS injection) and SAHA treated (5 h after the first SAHA treatment, and 3 h after LPS injection) animals. Several potential serum biomarkers in LPS-induced septic shock and treatment were found. One of them was histone H3, a chromatin protein in nucleus."}, "HL-60 granulocytes": {"test_system": "HL-60 granulocytes", "assay": "Western blots of H3, Ac H3 and Cit H3 in lysates and medium of LPS-stimulated HL-60 granulocytes", "format": "cell-based, human", "details": "3 h", "experimental": "Neutrophils might be a source of serum histone H3 during sepsis. To test whether histone H3 deimination/citrullination is induced as part of the neutrophil response to bacterial endotoxin, HL-60 cells obtained from American Type Culture Collection (ATCC) were maintained in Iscove's modified DMEM medium (Invitrogen Life Technologies, Carlsbad, Calif.) supplemented with 20% fetal bovine serum (FBS). These cells were grown at 37° C. in a humidified incubator in 5% CO2 and 95% air, and differentiated into granulocytes by culturing the cells in medium containing 1 μM ATRA for 3 days. The ATRA-differentiated HL-60 granulocytes were treated with 4 μM calcium ionophore in medium containing 1.5 mM calcium chloride, and then incubated with LPS (100 ng/ml) in the presence or absence of SAHA (10 μM) over 3 h. Following incubation, medium was collected, and cell lysates were prepared. The medium and the lysates were tested for H3, Ac H3, Cit H3 and actin (internal control) by Western blots. To ensure there was no false positive data that may be produced from the medium with dead cells, the cells were carefully treated and a sham group was also set up as a control."}, "[3]": {"test_system": "rodent models of LPS-induced septic shock", "details": "rodent models of LPS-induced septic shock (Li et al. 2009, 2010); cited from earlier work"}, "mice": {"test_system": "mice", "assay": "Survival of mice after small or large dose of LPS", "format": "in vivo", "details": "for survival rate: 7 day observation", "experimental": "To assure that the data were reliable, independent serum samples were collected and analyzed. As in a previous study (Li et al., Shock. 2009; 32(5): 517-523), male C57B1/6J mice (n=9, 3/group) weighing 25-30 g (purchased from Jackson Labs (Bar Harbor, Me.)) were randomly divided into two groups: LPS control, and SAHA+LPS. Normal saline (10 μl/g body weight) or LPS (20 mg/kg) dissolved in normal saline was injected intraperitoneally. The mice were given DMSO (1 μl/g body weight) or SAHA (50 mg/kg) dissolved in DMSO intraperitoneally 2 hours (h) before, and then soon after injection of LPS. Sham mice (no LPS, no SAHA) were used as the control. Serum separated from these blood samples was saved at −80° C. and used for the current experiment. In the present study, a large dose (35 mg/kg) or a small dose (10 mg/kg) of LPS was administrated intraperitoneally. All animals were housed in plastic cages and had access to chow and water throughout the experiment. The animals were kept at room temperature (24±2° C.) and exposed to alternative cycles of 12 h light and darkness. Survival rate was then recorded for over the next 7 days. Blood was collected from the orbital sinus (as described in Hoff, Lab Animal. 2000; 29(10): 47-53) at 3 h after LPS injection.\nIt has been reported that the effects of LPS on lethality and protein expression are dose-dependent (Barton and Jackson, Infect Immun. 1993; 61(4): 1496-1499; Haque et al., Pneumon. 2009; 22(2): 143-155). To determine whether serum levels of H3, Cit H3 and acetylated H3 were dependent on the LPS dose, the mice were injected with a small dose ([…]) or a large dose ([…]). The serum levels of all three histone H3 were then measured and correlated to mortality. Mice were randomly divided into three groups (n=10/group): (1) sham group (no LPS), (2) LPS small dose (SD) group, and (3) LPS large dose (LD) group. Blood was collected at 3 h after LPS injection and serum was prepared for immunoblotting."}, "serum Cit H3 and H3": {"test_system": "serum Cit H3 and H3", "assay": "Serum Cit H3, H3 and Ac H3 by Western blot after small or large dose of LPS", "format": "in vivo, mice", "details": "3 h after injection", "experimental": "The samples were analyzed by Western blot with anti-histone H3 antibody. Western blot analysis was performed as follows. Proteins (about 100 μg per lane) were separated by sodium dodecyl sulphate-polyacrylamide gel electrophoresis (SDS-PAGE) on 15% polyacrylamide gels and transferred onto nitrocellulose membranes (Bio-Rad Laboratories, Hercules, Calif.). The membranes were blocked in 0.05% PBS-Tween (PBST) containing 5% milk (Bio-Rad Laboratories, Hercules, Calif.) and then incubated with the primary antibody at 4° C. overnight. The primary antibody was detected by incubation with horseradish peroxidase-coupled second antibody (1:3,000 in PBST with 5% milk) at room temperature for 2 h. The chemiluminescence detection was performed by using WesternLighting Chemiluminescence Reagent Plus (PerkinElmer LAS, Inc., Boston, Mass.). Films were developed using a standard photographic procedure and quantitative analysis of detected bands was carried out by densitometer scanning using VersaDoc Imaging System (BioRad Laboratories, Hercules, Calif.).\nIt has been reported that the effects of LPS on lethality and protein expression are dose-dependent (Barton and Jackson, Infect Immun. 1993; 61(4): 1496-1499; Haque et al., Pneumon. 2009; 22(2): 143-155). […] The serum levels of all three histone H3 were then measured and correlated to mortality. […]"}, "TNF-α": {"test_system": "TNF-α", "assay": "Serum TNF-α ELISA after small or large dose of LPS", "format": "in vivo, mice", "details": "3 h after endotoxin insult", "experimental": "There is general agreement that the main pathogenic mediator in lethal septic shock is TNF-α (Beutler and Cerami, Annu Rev Immunol. 7: 625-55, 1989). To determine whether TNF-α can predict lethality of LPS-induced shock as well as Cit H3, blood was collected from sham, LPS (SD), and LPS (LD) groups at 3 h after LPS injection (n=5/group). Quantitative determination of TNF-α in the blood of mice was made using Quantikine Enzyme-Linked Immunosorbent Assay (ELISA) Kit (R&D Systems, Minneapolis, Minn.) according to manufacturer's instruction. The concentration of the cytokine was measured by optical densitometry at 450 nm in a SpectramaxPlus 384 microplate reader (Molecular Devices, Sunnyvale, Calif.). All of the analyses were performed in triplicates."}}, "note": "Entries after “also recorded” stand apart in the source; their conditions may differ."}
{"molecule": "O=C(CCCCCCC(=O)Nc1ccccc1)NO", "note": "[SAHA, suberoylanilide hydroxamic acid]", "values": [{"measurement": "serum histone H3 (Western blot)", "setting": "histone H3 in serum [1]; SAHA 50 mg/kg i.p. 2 h before and soon after LPS 20 mg/kg", "value": "no histone H3 was detected"}, {"measurement": "histone H3 in serum (iTRAQ)", "setting": "histone H3 in serum [2]", "value": "decreased histone H3 in serum dramatically"}, {"measurement": "Cit H3 in cultured cell medium (secretion)", "setting": "HL-60 granulocytes; SAHA 10 μM + LPS 100 ng/ml", "value": "decreases; also recorded: no detectable"}, {"measurement": "H3 in cultured cell medium", "setting": "HL-60 granulocytes; SAHA 10 μM + LPS 100 ng/ml", "value": "no detectable"}, {"measurement": "acetylated H3 in cell lysates", "setting": "HL-60 granulocytes; SAHA 10 μM + LPS 100 ng/ml", "value": "increase"}, {"measurement": "expression of Cit H3 in cell lysates", "setting": "HL-60 granulocytes; SAHA 10 μM + LPS 100 ng/ml", "value": "decreases; also recorded: significantly reduced"}, {"measurement": "survival", "setting": "[3]", "value": "improves survival"}]}
{"molecule": "lipopolysaccharide [LPS]", "values": [{"measurement": "serum histone H3 (Western blot)", "setting": "histone H3 in serum [1]; LPS 20 mg/kg i.p. without SAHA", "value": "a histone H3 band was clearly observed"}, {"measurement": "Cit H3 in cultured cell medium", "setting": "HL-60 granulocytes; LPS 100 ng/ml", "value": "more"}, {"measurement": "H3 in cultured cell medium", "setting": "HL-60 granulocytes; LPS 100 ng/ml", "value": "more"}, {"measurement": "Cit H3 in cell lysates", "setting": "HL-60 granulocytes; LPS 100 ng/ml, compared to sham", "value": "increase"}, {"measurement": "average survival time", "setting": "mice; LPS LD (35 mg/kg i.p.)", "value": "about 20 h"}, {"measurement": "earliest time of death", "setting": "mice; LPS LD (35 mg/kg i.p.)", "value": "~16", "unit": "h"}, {"measurement": "longest survival time", "setting": "mice; LPS LD (35 mg/kg i.p.)", "value": 23, "unit": "h"}, {"measurement": "time by which all mice died", "setting": "mice; LPS LD (35 mg/kg i.p.)", "value": "less than 23 h"}, {"measurement": "survival rate", "setting": "mice; LPS LD (35 mg/kg i.p.)", "value": 0, "unit": "%"}, {"measurement": "Mice died within 23 h", "setting": "mice; LPS LD (35 mg/kg i.p.), n = 10", "value": 10}, {"measurement": "average survival time", "setting": "mice; LPS SD (10 mg/kg i.p.)", "value": "~146", "unit": "h"}, {"measurement": "earliest time of death", "setting": "mice; LPS SD (10 mg/kg i.p.)", "value": 27, "unit": "h"}, {"measurement": "survival rate", "setting": "mice; LPS SD (10 mg/kg i.p.)", "value": 90, "unit": "%"}, {"measurement": "longest survival time", "setting": "mice; LPS SD (10 mg/kg i.p.), 168 h observation", "value": 168, "unit": "h"}, {"measurement": "Mice died within 23 h", "setting": "mice; LPS SD (10 mg/kg i.p.), n = 10", "value": "None"}, {"measurement": "Mice survived over 168 h", "setting": "mice; LPS SD (10 mg/kg i.p.), n = 10", "value": 9}, {"measurement": "Serum H3", "setting": "serum Cit H3 and H3; LPS SD (10 mg/kg i.p.)", "value": "increase"}, {"measurement": "serum Ac H3", "setting": "serum Cit H3 and H3; all animals (LPS SD and LD)", "value": "No Ac H3 was detected"}, {"measurement": "serum TNF-α", "setting": "TNF-α; LPS LD (35 mg/kg)", "value": 792, "unit": "pg/mL"}, {"measurement": "serum TNF-α", "setting": "TNF-α; LPS SD (10 mg/kg)", "value": 741, "unit": "pg/mL"}]}
